In ChEMBL document CHEMBL1131783, “Prodrugs of CL316243: a selective beta3-adrenergic receptor agonist for treating obesity and diabetes” (Bioorg Med Chem Lett, 1999):

Assays:
[1] = Partition coefficient (logP); assay type: physicochemical; conditions: octanol/water
[2] = molecular target: Beta-3 adrenergic receptor (Rattus norvegicus) (UniProt P26255); test: Effective dose required for beta-3-adrenergic activity against free fatty acid (FFA) in rat plasma; assay type: functional
[3] = molecular target: Beta-3 adrenergic receptor (Rattus norvegicus) (UniProt P26255); test: Beta-3-adrenergic activity measured by percent response against free fatty acid (FFA) in rat plasma at a dosage of 0.1 mg/kg; assay type: functional, organism-based; design: dose 0.1 mg/kg
[4] = species: Mus musculus; test: The compound was evaluated for the % glucose lowering along with drug intake over the test period of 5-7 days in mice
[5] = molecular target: Beta-3 adrenergic receptor (Rattus norvegicus) (UniProt P26255); test: Compound was evaluated for the beta-3-adrenergic activity by measuring % response against free fatty acid (FFA) in rat plasma at a dosage of 0.1 mg/kg; assay type: functional, organism-based; design: dose 0.1 mg/kg

Beta-3 adrenergic receptor (Rattus norvegicus), sequence (P26255 whole entry): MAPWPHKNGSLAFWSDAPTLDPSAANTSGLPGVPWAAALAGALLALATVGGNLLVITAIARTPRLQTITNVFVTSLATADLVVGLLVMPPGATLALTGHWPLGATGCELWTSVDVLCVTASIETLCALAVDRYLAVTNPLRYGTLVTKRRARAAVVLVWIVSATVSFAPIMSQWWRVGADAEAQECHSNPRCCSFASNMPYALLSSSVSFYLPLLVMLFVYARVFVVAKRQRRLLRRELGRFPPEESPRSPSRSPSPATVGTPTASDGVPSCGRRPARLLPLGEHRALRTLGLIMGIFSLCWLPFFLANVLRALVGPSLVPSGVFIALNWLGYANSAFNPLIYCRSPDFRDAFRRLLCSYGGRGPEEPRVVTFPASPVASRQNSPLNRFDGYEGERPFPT

SMILES | logP [1] | ED50 [2] | Response [3] | ED50 [4] | Response [5]
CCOC(=O)C1(C(=O)OCC)Oc2ccc(C[C@@H](C)NC[C@H](O)c3cccc(Cl)c3)cc2O1 | 0.35 | 0.034 mg/kg | 114% | 0.1 mg/kg | –
CC(OC(=O)c1ccccc1)OC(=O)C1(C(=O)OC(C)OC(=O)c2ccccc2)Oc2ccc(C[C@@H](C)NC[C@H](O)c3cccc(Cl)c3)cc2O1 (stereo partly drawn) | – | – | 30% | – | –
C[C@H](Cc1ccc2c(c1)OC(C(=O)OCC[Si](C)(C)C)(C(=O)OCC[Si](C)(C)C)O2)NC[C@H](O)c1cccc(Cl)c1 | – | – | 60% | – | –
CC(C)CCOC(=O)C1(C(=O)O)Oc2ccc(C[C@@H](C)NC[C@H](O)c3cccc(Cl)c3)cc2O1 (stereo partly drawn) | – | – | 42% | – | –
C[C@H](Cc1ccc2c(c1)OC(C(=O)OCc1cccc(Cl)c1)(C(=O)OCc1cccc(Cl)c1)O2)NC[C@H](O)c1cccc(Cl)c1 | – | – | 46% | – | –
CCCCOCCOC(=O)C1(C(=O)OCCOCCCC)Oc2ccc(C[C@@H](C)NC[C@H](O)c3cccc(Cl)c3)cc2O1 | – | – | 58% | – | –
C[C@H](Cc1ccc2c(c1)OC(C(=O)O)(C(=O)OC[Si](C)(C)C)O2)NC[C@H](O)c1cccc(Cl)c1 (stereo partly drawn) | – | – | 30% | – | –
C[C@H](Cc1ccc2c(c1)OC(C(=O)[O-])(C(=O)[O-])O2)NC[C@H](O)c1cccc(Cl)c1.[Na+].[Na+] | 0.046 | 0.24 mg/kg | – | 0.54 mg/kg | 2%
C[C@H](Cc1ccc2c(c1)OC(C(=O)O)(C(=O)OCCC1CC1)O2)NC[C@H](O)c1cccc(Cl)c1 (stereo partly drawn) | – | – | 19% | – | –

Second part, led by results:

logP [1] | ED50 [2] | Response [3] | SMILES | ED50 [4] | Response [5]
1.29 | 0.061 mg/kg | 100% | CC(C)OC(=O)C1(C(=O)OC(C)C)Oc2ccc(C[C@@H](C)NC[C@H](O)c3cccc(Cl)c3)cc2O1 | 0.056 mg/kg | –
2.34 | 0.071 mg/kg | 83% | C[C@H](Cc1ccc2c(c1)OC(C(=O)OCC1CCC1)(C(=O)OCC1CCC1)O2)NC[C@H](O)c1cccc(Cl)c1 | 0.128 mg/kg | –
– | 0.076 mg/kg | 77% | C[C@H](Cc1ccc2c(c1)OC(C(=O)OCCc1cccs1)(C(=O)OCCc1cccs1)O2)NC[C@H](O)c1cccc(Cl)c1 | 0.208 mg/kg | –
3.21 | 0.08 mg/kg | 71% | C[C@H](Cc1ccc2c(c1)OC(C(=O)OCCC(C)(C)C)(C(=O)OCCC(C)(C)C)O2)NC[C@H](O)c1cccc(Cl)c1 | 0.201 mg/kg | –
– | 0.071 mg/kg | 95% | C[C@H](Cc1ccc2c(c1)OC(C(=O)OCCc1ccccc1)(C(=O)OCCc1ccccc1)O2)NC[C@H](O)c1cccc(Cl)c1 | 0.156 mg/kg | –
2.16 | 0.027 mg/kg | 134% | C[C@H](Cc1ccc2c(c1)OC(C(=O)OCC(C)(C)C)(C(=O)OCC(C)(C)C)O2)NC[C@H](O)c1cccc(Cl)c1 | 0.028 mg/kg | –
– | – | 31% | C[C@H](Cc1ccc2c(c1)OC(C(=O)OCOC(=O)c1ccccc1)(C(=O)OCOC(=O)c1ccccc1)O2)NC[C@H](O)c1cccc(Cl)c1 | – | –
– | – | 8% | COc1ccc(COC(=O)C2(C(=O)OCc3ccc(OC)cc3)Oc3ccc(C[C@@H](C)NC[C@H](O)c4cccc(Cl)c4)cc3O2)cc1 | – | –
– | – | 22% | C[C@H](Cc1ccc2c(c1)OC(C(=O)OCC1CCCCC1)(C(=O)OCC1CCCCC1)O2)NC[C@H](O)c1cccc(Cl)c1 | – | –
– | – | 23% | CCCCCCC(=O)OCOC(=O)C1(C(=O)OCOC(=O)CCCCCC)Oc2ccc(C[C@@H](C)NC[C@H](O)c3cccc(Cl)c3)cc2O1 | – | –
– | – | 25% | C[C@H](Cc1ccc2c(c1)OC(C(=O)OCC(C)(C)Cc1ccccc1)(C(=O)OCC(C)(C)Cc1ccccc1)O2)NC[C@H](O)c1cccc(Cl)c1 | – | –
– | – | 63% | CC(C)COCCOC(=O)C1(C(=O)OCCOCC(C)C)Oc2ccc(C[C@@H](C)NC[C@H](O)c3cccc(Cl)c3)cc2O1 | – | –
3.77 | 0.026 mg/kg | 109% | CC(C)CCOC(=O)C1(C(=O)OCCC(C)C)Oc2ccc(C[C@@H](C)NC[C@H](O)c3cccc(Cl)c3)cc2O1 | 0.11 mg/kg | –
– | – | 51% | C[C@H](Cc1ccc2c(c1)OC(C(=O)O)(C(=O)OCCOc1ccccc1)O2)NC[C@H](O)c1cccc(Cl)c1 (stereo partly drawn) | – | –
